Results on eleven compounds are retold here after ChEMBL document CHEMBL5518166, “Exploring thienothiadiazine dioxides as isosteric analogues of benzo- and pyridothiadiazine dioxides in the search of new AMPA and kainate receptor positive allosteric modulators” (Eur J Med Chem, 2024).

In data set [1] the target is T1, Glutamate receptor ionotropic, AMPA (Rattus norvegicus) (UniProt P19491+P19492+P19493+P19490). Briefly: Positive allosteric modulation at AMPAR in rat Primary embryonic cortical cell assessed as concentration required for 2 fold increase in AMPA induced fluorescence by FlipR assay. Format: cell-based. To be noted: filed as positive allosteric modulator.
The target in data set [2] is Glutamate receptor ionotropic AMPA (Homo sapiens, UniProt P42261+P42262+P42263+P48058). Nature of the data set: Positive allosteric modulation at AMPAR in HEK293 cells expressing GluA2Qi subunit assessed as glutamate induced calcium influx. Type of data set: cell-based.
Data set [3] addresses Glutamate receptor ionotropic AMPA (Homo sapiens) (UniProt P48058+P42263+P42262+P42261). Briefly: Positive allosteric modulation at AMPAR in HEK293 cells expressing GluA2 assessed as glutamate induced calcium influx by measuring efficacy relative to control. Format: cell-based. Conditions: filed as positive allosteric modulator.
Data set [4] addresses Glutamate receptor ionotropic kainate 1 (Homo sapiens) (UniProt P39086). Nature of the data set: Positive allosteric modulation at kainate receptor in HEK293 cells expressing GluK1-Q1b assessed as glutamate induced calcium influx by measuring efficacy relative to control. Conditions: filed as positive allosteric modulator.
For data set [5], the target named is Glutamate receptor ionotropic kainate 2 (Homo sapiens) (UniProt Q13002). Nature of the data set: Positive allosteric modulation at kainate receptor in HEK293 cells expressing GluK2-Q2a assessed as glutamate induced calcium influx by measuring efficacy relative to control. Conditions: filed as positive allosteric modulator.
The target of data set [6] is T1, Glutamate receptor ionotropic, AMPA (Rattus norvegicus). Briefly: Positive allosteric modulation at AMPAR in rat Primary embryonic cortical cell assessed as concentration required for 2 fold increase in AMPA induced fluorescence. Type of data set: cell-based. Conditions: filed as positive allosteric modulator.
Data set [7] is described as follows: Toxicity in NMR1 mouse assessed as pro-convulsant effect at 100 mg/kg measured upto 180 mins. To be noted: in vivo, 3 h. Type of data set: organism-based.
Data set [8] can be described thus: Toxicity in NMR1 mouse assessed as effect on hypothermia at 100 mg/kg measured upto 180 mins. Type of data set: organism-based. To be noted: in vivo, 3 h.
For a further data set, the system named is Rattus norvegicus. Briefly: Cognition enhancing effect in Wistar rat assessed as increase in amplitude of initial post-synaptic response at 30 mg/kg, ip pretreated for 1 hr followed by tetanic stimulation and measured for 3 hrs. Format: functional, organism-based. Conditions: time 4.0 hrs.
The test system of data set [9] is Mus musculus. Nature of the data set: Cognition enhancing effect in CD1 mouse assessed as increase in exploration time spent on new object at 1 mg/kg, po measured after 1 hr by object recognition test (reference value: 35%). Format: functional.
Data set [10] deals with Mus musculus. Nature of the data set: Cognition enhancing effect in CD1 mouse assessed as increase in exploration time spent on new object at 3 mg/kg, po measured after 1 hr by object recognition test (reference value: 35%). Format: functional.
Data set [11] deals with T1, Glutamate receptor ionotropic, AMPA (Rattus norvegicus). Nature of the data set: Positive allosteric modulation at AMPAR in rat Primary embryonic cortical cell assessed as concentration required for 2 fold increase in AMPA induced fluorescence by FDSS fluorescence assay. Conditions: Cerebral cortex cell, filed as positive allosteric modulator. Format: cell-based.
Data set [12] in a line: Toxicity in NMR1 mouse assessed as effect on hypothermia at 30 mg/kg measured upto 180 mins. Conditions: in vivo, 3 h. Format: organism-based.
In data set [13] the target is T1, Glutamate receptor ionotropic, AMPA (Rattus norvegicus). Briefly: Positive allosteric modulation of rat cortex AMPAR expressed in xenopus oocytes assessed as concentration required for 2 fold increase in AMPA induced […]. Type of data set: cell-based. To be noted: Oocyte, filed as positive allosteric modulator.

The source made the active and inactive calls. The rule behind the calls is not given here.

The EC50 is the concentration giving half of the maximal effect.

Chain of Glutamate receptor ionotropic kainate 2 (Homo sapiens) (Q13002 whole entry, looked up): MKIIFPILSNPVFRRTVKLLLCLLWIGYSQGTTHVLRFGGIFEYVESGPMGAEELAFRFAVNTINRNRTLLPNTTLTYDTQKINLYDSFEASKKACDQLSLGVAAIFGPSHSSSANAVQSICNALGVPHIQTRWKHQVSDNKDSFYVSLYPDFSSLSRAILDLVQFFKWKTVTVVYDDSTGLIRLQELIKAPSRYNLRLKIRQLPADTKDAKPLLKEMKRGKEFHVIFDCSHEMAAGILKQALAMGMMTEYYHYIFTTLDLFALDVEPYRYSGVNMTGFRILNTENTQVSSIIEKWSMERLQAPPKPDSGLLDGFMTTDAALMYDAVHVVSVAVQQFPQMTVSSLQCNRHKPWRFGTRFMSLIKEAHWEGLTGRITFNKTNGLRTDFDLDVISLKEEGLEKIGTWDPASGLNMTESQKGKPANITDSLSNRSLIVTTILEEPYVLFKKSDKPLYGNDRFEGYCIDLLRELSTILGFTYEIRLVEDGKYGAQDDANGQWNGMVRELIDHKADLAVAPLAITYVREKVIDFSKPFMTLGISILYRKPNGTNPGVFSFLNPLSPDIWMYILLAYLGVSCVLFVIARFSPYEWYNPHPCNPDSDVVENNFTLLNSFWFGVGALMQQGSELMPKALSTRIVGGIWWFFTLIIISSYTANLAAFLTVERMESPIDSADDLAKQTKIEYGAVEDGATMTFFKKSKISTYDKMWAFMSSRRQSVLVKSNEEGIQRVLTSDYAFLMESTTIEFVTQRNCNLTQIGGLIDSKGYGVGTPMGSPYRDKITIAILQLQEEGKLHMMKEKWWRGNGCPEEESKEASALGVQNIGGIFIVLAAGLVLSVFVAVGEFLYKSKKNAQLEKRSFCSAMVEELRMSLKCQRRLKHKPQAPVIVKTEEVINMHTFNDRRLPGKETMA
Chain of Glutamate receptor ionotropic kainate 1 (Homo sapiens) (P39086 whole entry, looked up): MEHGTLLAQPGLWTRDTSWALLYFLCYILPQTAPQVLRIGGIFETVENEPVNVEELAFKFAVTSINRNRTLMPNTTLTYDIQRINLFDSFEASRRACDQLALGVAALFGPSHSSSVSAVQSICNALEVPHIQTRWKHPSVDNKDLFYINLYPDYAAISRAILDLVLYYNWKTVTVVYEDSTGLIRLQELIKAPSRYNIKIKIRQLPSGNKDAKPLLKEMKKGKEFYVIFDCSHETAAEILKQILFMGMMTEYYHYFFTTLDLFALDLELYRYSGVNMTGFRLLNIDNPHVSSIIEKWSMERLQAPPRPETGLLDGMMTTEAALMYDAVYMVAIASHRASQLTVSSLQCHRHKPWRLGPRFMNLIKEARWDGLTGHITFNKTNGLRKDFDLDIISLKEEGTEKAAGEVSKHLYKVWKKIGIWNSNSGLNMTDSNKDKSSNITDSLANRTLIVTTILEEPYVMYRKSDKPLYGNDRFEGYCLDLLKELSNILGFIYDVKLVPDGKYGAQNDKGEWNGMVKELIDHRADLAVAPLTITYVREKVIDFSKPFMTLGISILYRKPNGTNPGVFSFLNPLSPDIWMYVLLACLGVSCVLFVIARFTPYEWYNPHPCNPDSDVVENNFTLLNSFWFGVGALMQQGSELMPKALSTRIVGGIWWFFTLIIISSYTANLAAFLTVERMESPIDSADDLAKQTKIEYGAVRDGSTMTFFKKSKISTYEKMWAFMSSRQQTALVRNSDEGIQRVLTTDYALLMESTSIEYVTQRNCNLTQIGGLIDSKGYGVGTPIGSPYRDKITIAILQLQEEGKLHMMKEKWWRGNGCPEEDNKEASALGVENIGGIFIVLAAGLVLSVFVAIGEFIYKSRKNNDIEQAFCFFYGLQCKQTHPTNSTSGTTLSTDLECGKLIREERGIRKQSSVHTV

With `C=CCN1CNS(=O)(=O)c2sc(Cl)cc21`, the EC in data set [1] is 18.5 µM. Further, the half-maximal effective concentration (EC50) in [2] was found to be 26.9 µM. Further, the Activity in data set [3] was 126%. Also, the results for the Efficacy in [4] and in [5] were 112% and 80%, respectively.
Turning to `O=S1(=O)NCN(C2CC2)c2ccc(F)cc21`, the Activity in data set [3] was determined as 100%. The EC in data set [6] was 0.27 µM.
For the compound `O=S1(=O)NC2CCCN2c2cc(Cl)sc21` (centres undefined), the Activity result in [7] was “Non-Toxic”; in data set [8], “Non-Toxic”; in the data set with Mus musculus [9], 82%; in the data set with Mus musculus [10], 69%. The outcome with Rattus norvegicus was Active.
As for `O=S1(=O)NCN(C2CC2)c2cc(Cl)sc21`, the EC in data set [11] worked out at 0.24 µM. Moreover, in data set [2], the half-maximal effective concentration (EC50) was 4.7 µM. Also, the Activity entry in data set [12] is “Toxic”; in [3], 126%. Also, the Efficacy in [4] is 50%; in [5] it was 80%.
In the case of `O=S1(=O)CCC(C2CC2)c2ccc(F)cc21` (centres undefined), the EC in [6] was determined as 2.2 µM.
Regarding `CN1CN(CC(F)F)c2cc(Cl)sc2S1(=O)=O`, the EC in data set [11] was found to be 24.5 µM. The EC50 in [2] is 39.9 µM.
Turning to `C=CCN1CN(C)S(=O)(=O)c2sc(Cl)cc21`, the EC in [1] is 80.4 µM. Besides, the half-maximal effective concentration (EC50) in data set [2] was 76.5 µM.
As to `CC1N(CC(F)F)c2cc(Cl)sc2S(=O)(=O)N1C` (centres undefined), the EC in [11] is 1.2 µM. Besides, the concentration giving a half-maximal response (EC50) in data set [2] was 31.5 µM. Besides, the Efficacy in data set [4] amounted to 50%; in data set [5] it was 60%.
For the compound `CN1C2CCCN2c2cc(Cl)sc2S1(=O)=O` (centres undefined), the EC in data set [1] was 40.1 µM. Further, the concentration for a half-maximal effect (EC50) in [2] is above 100 µM.
Regarding `O=S1(=O)N[C@H]2CCCN2C2CCCCC21` (some centres undefined), the EC in data set [13] is 24.6 µM.
As to `CCN1c2cc(Cl)sc2S(=O)(=O)N(C)C1C` (centres undefined), in [1], the EC stood at 6.4 µM. In data set [2], the EC50 is 24.6 µM. For the same compound, the Efficacy was 50% in data set [4] and 60% in data set [5].
